Measured values reported in paper PMC10874388, “Cyclic peptides discriminate BCL-2 and its clinical mutants from BCL-XL by engaging a single-residue discrepancy” (Nature Communications, 2024).
“And” between values parts separate entries of the source, which are not always exact repeats. Equal values may be shown once.

Tests used:
Type in all cases: cell-based
[1] = tested on: A549 cells overexpressing BCL-2 WT; test: Cell viability assay, A549 stably overexpressing BCL-2 WT; conditions: for luminescence reading (raw, replicate wells) / luminescence reading, everage / inhibition rate: BCL2-WT A549; for luminescence reading, everage: mean of 6 wells
Experimental: (§1) Cell viability was measured using CellTiter-Glo® 2.0 Reagent (Promega, G9242). […] After different inhibitors were added into serum-free medium and cultured for 4 h (RS4:11 for 6 h), FBS were supplemented to 10% and then incubated totally for 24 h or 48 h. Finally, the IC50 values were calculated based on measurements using a microplate reader (Thermo, Varioskan LUX). Statistical analysis was performed using software GraphPad Prism 7.0.
(§2) Lentivirus packaging vectors pMDLg/pRRE, pRSV-Rev, and pVSV-G were obtained from Prof. Han Jiahuai’s lab (Xiamen University). Lentiviruses were produced using 3rd-generation lentivirus packaging plasmids transiently transfected into HEK293T cells with the constructs of interest using 0.25 M CaCl2. Media was changed after 16 h, and supernatants containing infectious virus particles were harvested 24 h later. A second viral harvest was made following a further 24 h incubation with fresh media. Virus containing supernatant was filtered through a […], and stored at 4 °C or −80 °C until being used. Typically, A549 cells were seeded into 10 cm cell culture dishes at 4 ~ 8 × 10^5 cells/cm^2. An equivalent volume of virus containing culture medium was added along with polybrene (Sigma) to a final concentration of 10 µg/mL. Cells were incubated at 37 °C for 20 h, before they were washed and resuspended in fresh culture media. The expression level of BCL-2 was measured by qPCR and western blot methods.

Jurkat cells = test: Cell viability assay (CellTiter-Glo), Jurkat; conditions: for inhibition relative to 0 uM control, replicates / raw viability signal, replicates: listed as ABT199
Experimental: The cell lines Jurkat (TIB-152), El4 (TIB-39), Daudi (ccl-213), RS4:11 (crl-1873), A549 (ccl-185), HepG2 (hb-8065) and PANC-1 (crl-1469) were purchased from ATCC (American Type Culture Collection), and MGC-803 (C6582) was purchased from Beyotime (https://www.beyotime.com/product/C6582.htm). […] Daudi and RS4:11 cells were cultured in RPMI-1640 medium (HyClone, SH30809.01) and 10% FBS (Gibco, 10099-141), whereas HepG2, MGC-803 and PANC-1 cells were cultured in MDEM (HyClone, SH30243.01). Cells were maintained at 37 °C under a humidified, 5% (v/v) CO2-containing atmosphere.
as §1

[2] = tested on: A549 cells overexpressing BCL-2 G101V; test: Cell viability assay, A549 stably overexpressing BCL-2 G101V; conditions: BCL2/G101V A549; for luminescence reading, everage: mean of 6 wells; for inhibition rate: replicate wells
Experimental: as §1, §2

CC1(C)CCC(CN2CCN(c3ccc(C(=O)NS(=O)(=O)c4ccc(NCC5CCOCC5)c([N+](=O)[O-])c4)c(Oc4cnc5[nH]ccc5c4)c3)CC2)=C(c2ccc(Cl)cc2)C1 [venetoclax]
luminescence reading (raw, replicate wells) ([1]; ABT-199 0.390625 uM): 644100 and 629100 and 637900 and 643500 and 647000 and 655800 | luminescence reading, everage ([1]; ABT-199 0.390625 uM): 642900 | inhibition rate ([1]; ABT-199 0.390625 uM, replicate wells): -3.29% and -4.73% and -5.65% and -6% and -8% and -5.55% | luminescence reading (raw, replicate wells) ([1]; ABT-199 0.78125 uM): 567400 and 598600 and 586100 and 654900 and 608300 and 579900 | luminescence reading, everage ([1]; ABT-199 0.78125 uM): 599200 | inhibition rate ([1]; ABT-199 0.78125 uM, replicate wells): 1.72% and 3.77% and -7.52% and 0.129% and 5% and 1.62% | luminescence reading (raw, replicate wells) ([1]; ABT-199 1.5625 uM): 298800 and 328200 and 290000 and 313400 and 302200 and 296200 | luminescence reading, everage ([1]; ABT-199 1.5625 uM): 304800 | inhibition rate ([1]; ABT-199 1.5625 uM, replicate wells): 52% and 49% and 50% and 51% | luminescence reading (raw, replicate wells) ([1]; ABT-199 3.125 uM): 264200 and 271400 and 265500 and 281900 and 276200 and 275000 | luminescence reading, everage ([1]; ABT-199 3.125 uM): 272367 | inhibition rate ([1]; ABT-199 3.125 uM, replicate wells): 56% and 54% | luminescence reading (raw, replicate wells) ([1]; ABT-199 6.25 uM): 239200 and 242900 and 250800 and 260000 and 262000 and 251900 | luminescence reading, everage ([1]; ABT-199 6.25 uM): 251133 | inhibition rate ([1]; ABT-199 6.25 uM, replicate wells): 59% and 57% | luminescence reading (raw, replicate wells) ([1]; ABT-199 12.5 uM): 192300 and 201400 and 189800 and 189400 and 190500 and 194300 | luminescence reading, everage ([1]; ABT-199 12.5 uM): 192950 | inhibition rate ([1]; ABT-199 12.5 uM, replicate wells): 69% and 68% | luminescence reading (raw, replicate wells) ([1]; ABT-199 25 uM): 124100 and 129200 and 123800 and 128900 and 121100 and 127700 | luminescence reading, everage ([1]; ABT-199 25 uM): 125800 | inhibition rate ([1]; ABT-199 25 uM, replicate wells): 80% | luminescence reading (raw, replicate wells) ([1]; ABT-199 50 uM): 61440 and 62870 and 63340 and 62270 and 63280 and 66020 | luminescence reading, everage ([1]; ABT-199 50 uM): 63203 | inhibition rate ([1]; ABT-199 50 uM, replicate wells): 89% | luminescence reading (raw, replicate wells) ([1]; ABT-199 100 uM): 19300 and 21810 and 21770 and 21930 and 21040 and 20180 | luminescence reading, everage ([1]; ABT-199 100 uM): 21005 | inhibition rate ([1]; ABT-199 100 uM, replicate wells): 97% | luminescence reading (raw, replicate wells) ([1]; ABT-199 200 uM): 4077 and 3911 and 4092 and 4449 and 4173 and 4465 | luminescence reading, everage ([1]; ABT-199 200 uM): 4195 | inhibition at 1.5625 µM ([1]; Homo sapiens, A549, BCL2-WT A549, ABT-199 1.5625 uM, replicate wells, read-out: inhibition rate): 46% | inhibition at 3.125 µM ([1]; Homo sapiens, A549, BCL2-WT A549, ABT-199 3.125 uM, replicate wells, read-out: inhibition rate): 55% | inhibition at 6.25 µM ([1]; Homo sapiens, A549, BCL2-WT A549, ABT-199 6.25 uM, replicate wells, read-out: inhibition rate): 60% | inhibition at 12.5 µM ([1]; Homo sapiens, A549, BCL2-WT A549, ABT-199 12.5 uM, replicate wells, read-out: inhibition rate): 67% | inhibition at 25 µM ([1]; Homo sapiens, A549, BCL2-WT A549, ABT-199 25 uM, replicate wells, read-out: inhibition rate): 79% | inhibition at 50 µM ([1]; Homo sapiens, A549, BCL2-WT A549, ABT-199 50 uM, replicate wells, read-out: inhibition rate): 90% | inhibition at 100 µM ([1]; Homo sapiens, A549, BCL2-WT A549, ABT-199 100 uM, replicate wells, read-out: inhibition rate): 96% | inhibition at 200 µM ([1]; Homo sapiens, A549, BCL2-WT A549, ABT-199 200 uM, replicate wells, read-out: inhibition rate): 99% | IC50 ([1]; Homo sapiens, A549, 48 h, CellTiter-Glo, n = 6): 2500 ± 200 nM | inhibition relative to 0 uM control, replicates (Jurkat cells; 0.09375 uM): 3.52% and 1.46% and 6% and 5% (2×) and 2.56% | raw viability signal, replicates (Jurkat cells; 0.09375 uM): 1920000 and 1961000 and 1868000 and 1890000 and 1939000 and 1891000 | inhibition relative to 0 uM control, replicates (Jurkat cells; 0.1875 uM): 17% and 21% (2×) and 20% (2×) | raw viability signal, replicates (Jurkat cells; 0.1875 uM): 1613000 and 1643000 and 1579000 and 1582000 and 1598000 and 1590000 | inhibition relative to 0 uM control, replicates (Jurkat cells; 0.375 uM): 36% and 31% and 32% and 27% and 22% and 17% | raw viability signal, replicates (Jurkat cells; 0.375 uM): 1276000 and 1374000 and 1347000 and 1456000 and 1547000 and 1657000 | inhibition relative to 0 uM control, replicates (Jurkat cells; 0.75 uM): 38% and 41% and 36% and 33% and 32% | raw viability signal, replicates (Jurkat cells; 0.75 uM): 1124000 and 1225000 and 1165000 and 1278000 and 1326000 and 1356000 | inhibition relative to 0 uM control, replicates (Jurkat cells; 1.5 uM): 52% and 54% (2×) and 53% and 47% | raw viability signal, replicates (Jurkat cells; 1.5 uM): 903200 and 948100 and 908900 and 906300 and 926500 and 1061000 | inhibition relative to 0 uM control, replicates (Jurkat cells; 3 uM): 86% (3×) and 87% (2×) | raw viability signal, replicates (Jurkat cells; 3 uM): 248500 and 275900 and 263600 and 270200 and 263000 and 279700 | inhibition at 0.1875 µM (Jurkat cells; Homo sapiens, 0.1875 uM, read-out: inhibition relative to 0 uM control, replicates): 19% | inhibition at 0.75 µM (Jurkat cells; Homo sapiens, 0.75 uM, read-out: inhibition relative to 0 uM control, replicates): 44% | inhibition at 1.5 µM (Jurkat cells; Homo sapiens, 1.5 uM, read-out: inhibition relative to 0 uM control, replicates): 55% | inhibition at 3 µM (Jurkat cells; Homo sapiens, 3 uM, read-out: inhibition relative to 0 uM control, replicates): 88% | IC50 (Jurkat cells; Homo sapiens, 48 h treatment, CellTiter-Glo): 1200 ± 200 nM | luminescence reading (raw, replicate wells) ([2]; ABT-199 0.390625 uM): 626600 and 647800 and 649100 and 614500 and 623500 and 619300 | luminescence reading, everage ([2]; ABT-199 0.390625 uM): 630133 | inhibition rate ([2]; ABT-199 0.390625 uM): -3% and -6.36% and -6.57% and -0.889% and -2.37% and -1.68% | luminescence reading (raw, replicate wells) ([2]; ABT-199 0.78125 uM): 583300 and 568200 and 597700 and 560800 and 571600 and 528100 | luminescence reading, everage ([2]; ABT-199 0.78125 uM): 568283 | inhibition rate ([2]; ABT-199 0.78125 uM): 4.23% and 7% and 1.87% and 8% and 6% and 13% | luminescence reading (raw, replicate wells) ([2]; ABT-199 1.5625 uM): 398200 and 407800 and 413600 and 450500 and 408700 and 467800 | luminescence reading, everage ([2]; ABT-199 1.5625 uM): 424433 | inhibition rate ([2]; ABT-199 1.5625 uM): 33% and 32% and 26% and 23% | luminescence reading (raw, replicate wells) ([2]; ABT-199 3.125 uM): 271900 and 280300 and 266200 and 296500 and 277300 and 344500 | luminescence reading, everage ([2]; ABT-199 3.125 uM): 289450 | inhibition rate ([2]; ABT-199 3.125 uM): 54% and 56% and 51% and 43%
